Entries after “also recorded” stand apart in the source; their conditions may differ.
Experiments:
Type in all cases: cell-based, Salmonella enterica serovar Typhimurium
[1] = system: wild-type MA43 Salmonella; assay: Growth with F-Asn under aerobic and anaerobic conditions with or without tetrathionate; settings: 5 mM F-Asn
Method: FIG. 4A to FIG. 4D show growth of Salmonella on F-Asn in the presence or absence of tetrathionate or oxygen. Growth of wild-type MA43 and fraB1::kan mutant MA59 on 5 mM F-Asn or 5 mM glucose anaerobically (FIG. 4A and FIG. 4B) or aerobically (FIG. 4C and FIG. 4D) in the presence (FIG. 4A and FIG. 4C) or absence (FIG. 4B and FIG. 4D) of 40 mM tetrathionate (S406 22). Bacteria were grown overnight in LB at 37° C. shaking, centrifuged, resuspended in water, and subcultured 1:1000 into NCE medium containing the indicated carbon source. The optical density at 600 nm was then read at time points during growth at 37° C. with shaking. Each point represents the mean of four cultures with error bars indicating standard deviation. ● F-Asn wild-type; ▪ F-Asn fraB mutant; ▴ Glucose wild-type; ▾ Glucose fraB mutant; x-axis: time (hours); y-axis: OD600.
Growth with F-Asn was tested under aerobic and anaerobic conditions in the presence or absence of the terminal electron acceptor tetrathionate (FIG. 4A to FIG. 4D). […] Competition experiments in which the wild-type and fraB1::kan mutant were grown in the same culture were performed in minimal medium containing F-Asn. As expected, the mutant was severely attenuated during aerobic and anaerobic growth, and in the presence or absence of tetrathionate (FIG. 5). Indeed, the attenuation was most severe during anaerobic growth in the presence of tetrathionate.

[2] = system: wild-type MA43 Salmonella; assay: Growth of Salmonella on Amadori products as sole carbon source; settings: NCE minimal medium, carbon source at 5 mM, 37° C.
Method: FIG. 2A to FIG. 2E are graphs showing growth of wild-type and fraB1::kan mutant Salmonella on Amadori products. Growth of wild-type MA43 and fraB1::kan mutant MA59 on F-Asn (FIG. 2A), F-Arg (FIG. 2B), F-Lys (FIG. 2C), asparagine, arginine, lysine, or glucose (FIG. 2D). Bacteria were grown overnight in Luria Bertani (LB) broth at 37° C. with shaking, centrifuged, resuspended in water, and subcultured 1:1000 into minimal “no carbon E” (NCE) medium (containing trace metals) and the indicated carbon source at 5 mM. The optical density at 600 nm was then read at time points during growth at 37° C. with shaking. Controls included NCE with no carbon source, and NCE with glucose that was not inoculated, as a sterility control (FIG. 2D). FIG. 2E is a graph showing complementation of a fraB1::kan mutation with plasmid pASD5006 encoding the fra island (ASD6000) or the vector control, pWSK29 (ASD6010). Each point represents the mean of three cultures with error bars indicating standard deviation. FIG. 2A to FIG. 2C: ● wild-type; ◯ fraB mutant; FIG. 2D: ● Glucose wild-type; ◯ Glucose fraB mutant; □ No carbon source; ● Sterility; ⋄ Asn wild-type; * Arg wild-type; × Lys wild type; FIG. 2E: ◯ Glucose fraB mutant+pASD5006; ● Glucose fraB mutant+vector; ▪ F-Asn fraB mutant+pASD5006; F-Asn fraB mutant+vector; y-axis: OD600; x-axis: time (hours).
Amadori products most often result from a spontaneous reaction between a carbonyl group (often of glucose, although numerous other compounds can also react) and an amino group of an amino acid in vivo, and are then referred to as non-enzymatic glycation products. Zhang et al., 8 J. Proteome. Res. 754 (2009); Tessier, 58 Pathol. Biol. 214 (2010). With F-Lys and fructose-arginine (F-Arg) this can happen with the free amino acid, or the side groups of the lysine and arginine residues of a protein. In contrast, fructose-asparagine (F-Asn) can only result from reaction of glucose with the alpha amino group of free asparagine or the N-terminal asparagine of a protein. […]

Wild-type (strain 14028) = assay: Growth inhibition by F-Asn in M9 glucose medium, wild-type; settings: M9 minimal medium with glucose and F-Asn
Method: (§1) FIG. 25 reflects the determination of the IC50 and IC90 of F-Asn to a fraB mutant. Wild-type (strain 14028, ●), ΔfraB::kan (HMB206, □) or Δfra island (HMB205, ▴) were grown in M9 minimal medium containing 5 mM glucose and varying concentrations of F-Asn. The data points represent the optical density obtained after 15 hours of growth at 37° C.
(§2) Growth curves were performed using clear, flat-bottom, 96-well plates. Minimal media with the specified carbon source were prepared and overnight cultures were washed twice with sterile water. In each well, 198-μl aliquots of media were inoculated with 2 μl of washed overnight cultures. A Breathe-Easy membrane film (Diversified Biotech) was placed over each 96-well plate. Growth over 18 hr at 37° C. was measured using hourly OD600 measurements in a SpectraMax M5 (Molecular Devices) Microplate Reader and SoftMax Pro 6.1 software.
(§3) To determine if F-Asn was bacteriostatic or bactericidal to the fraB mutant, the 50% and 90% inhibitory concentration (IC50 and IC90) and the minimum bactericidal concentration (MBC) were characterized. The IC50 and IC90 were determined by adding increasing concentrations of F-Asn to M9 minimal medium containing glucose as the carbon source. Growth of the fraB mutant was then monitored in these media. […] To determine the MBC, a small aliquot of these same cultures was dilution-plated onto LB agar.

Δfra island (HMB205) = assay: Growth inhibition by F-Asn in M9 glucose medium, fra island mutant; settings: M9 minimal medium with glucose and F-Asn
Method: as §1, §2, §3

[3] = system: ΔfraB::kan (HMB206) fraB mutant; assay: Growth inhibition of fraB mutant by F-Asn in M9 glucose medium (IC50, IC90, MBC)
Method: as §1, §2, §3

| Compound | Salmonella doubling time on F-Asn ([1]; aerobically with tetrathionate) [h] | Salmonella doubling time on F-Asn ([1]; aerobically without tetrathionate) [h] | Salmonella doubling time on F-Asn ([1]; anaerobically with tetrathionate) [h] | Salmonella doubling time on F-Asn ([1]; anaerobically without tetrathionate) [h] | growth on Amadori product as sole carbon source [2] | inhibitory to growth (Wild-type (strain 14028)) | inhibitory to growth (Δfra island (HMB205)) | IC50 ([3]; Salmonella enterica, M9 minimal medium, 5 mM glucose, varying F-Asn, optical density after 15 hours at 37° C., 95% confidence interval 9 to 40 μM) [µM] | IC90 ([3]; Salmonella enterica, M9 minimal medium, 5 mM glucose, varying F-Asn, optical density after 15 hours at 37° C., 95% confidence interval 82 to 368 μM) [µM] | minimum bactericidal concentration (MBC) ([3]; aliquot of IC50 cultures dilution-plated onto LB agar, up to highest F-Asn concentrations tested) | bacteriostatic or bactericidal to the fraB mutant ([3]; in vitro, cultures dilution-plated onto LB agar) |
| --- | --- | --- | --- | --- | --- | --- | --- | --- | --- | --- | --- |
| NC(=O)C[C@@H](NCC1(O)OC[C@@H](O)[C@@H](O)[C@@H]1O)C(=O)O (stereo partly drawn) [F-Asn, (2R)-4-amino-4-oxo-2-[[(3S,4R,5R)-2,3,4,5-tetrahydroxyoxan-2-yl]methylamino]butanoic acid] | 1.6 ± 0.1 | 2.0 ± 0.3 | 1.9 ± 0.1 | 2.9 ± 0.4 | grew as well on F-Asn as on glucose | not | not | 19 | 174 | no MBC was revealed | bacteriostatic; also recorded: bacteriostatic, not bactericidal |
| fructose-arginine [F-Arg] | – | – | – | – | unable to grow | – | – | – | – | – | – |
| fructose-lysine [F-Lys] | – | – | – | – | grew slowly and with low yield | – | – | – | – | – | – |

From patent US10752933B2, “Methods for the identification, characterization, and use of inhibitors of the fructose-asparagine utilization pathway” (priority 2015, dated 2020)
